Tests used:
[1] = Light-fastness study (Oxynex ST photostabiliser); type: physicochemical; conditions: 0.1% vanillin, light box 5000 lux
Method: A composition without any photostabiliser was used as a base composition (no photostabiliser).
Method: Each formulation was diluted with water to 0.1% vanillin (as pure) and 5 mL was applied by pipette to a glass petri dish. The dishes were left to stand in a light box fitted with 2×40 W fluorescent daylight bulbs with an illumination intensity of 5000 lux. The dishes were extracted with methanol and made up to 25 mL in a volumetric flask after 3 and 5 days. Samples were then analysed by HPLC.

Photodecomposition study = type: physicochemical; conditions: 0.1% vanillin
Method: The following samples were prepared by diluting down the specified composition with water: • VS, vanillin solution in water @ 0.1% vanillin; • 0.4% dilution of RBEF-024 (0.1% vanillin); and • 0.4% dilution of RBEF-030 (0.1% vanillin). • 5 ml of the diluted material was pipetted into 3 pyrex crystallisation dishes; the surface was covered with muslin and the samples placed in a light box for 1, 3 and 5 days respectively with high intensity white light applied for 5 hours out of every 24 hours.
As a control, three equivalent samples were placed in crystallisation dishes which were placed in the dark (inside a cupboard).
At the end of each time period the contents of the crystallisation dishes were washed out with 4×5 mL methanol (magnetic stirrer used at each addition to dissolve any solid vanillin) and the washings transferred to a 25 mL volumetric flask and made up to volume with methanol.
As an initial control (t=0 days), 5 mL of each dilution was pipetted into a 25 mL volumetric flask and made up to volume with methanol.

[2] = Light-fastness study, ratio of Oxynex ST:ascorbic acid; type: physicochemical; conditions: 0.1% vanillin, 1500 Lux 5 hours per day
Method: The formulations used for these experiments are described in TABLE 12. Various ratios of Oxynex ST and ascorbic acid were used in the composition to determine the effect on photostability.
(§1) Method: Formulations were diluted with water to 0.1% vanillin and 5 mL transferred by pipette to a 100 mL crystallising dish. All dishes were placed in a light box containing two 60 cm high efficiency 24 W fluorescent bulbs housed in a canopy to provide bright, full spectrum lighting closely resembling daylight (6400 Kelvin). The dishes were covered with muslin sheets to reduce the intensity of the light to 1500 Lux on a programme of 5 hours per day. At specific time intervals the dishes were extracted and made up to volume with methanol. Samples were analysed by HPLC.

[3] = Light-fastness study, addition of ascorbic acid; type: physicochemical; conditions: 0.1% vanillin, 1500 Lux 5 hours per day
Method: The formulations used for these experiments are described in TABLE 10. Oxynex ST (5%) and Oxynex ST (5%) with ascorbic acid (1%) were added to the composition to determine the effect on photostability.
as §1

cabbage leaf discs = experiment: Effect of composition on leaf-penetration; conditions: 0.1% vanillin
Method: 14.5 cm cabbage leaf discs were cut and placed in a petri dish and treated with a diluted composition. At the same time a second petri dish (control) was treated with the same diluted composition with no leaf present and stored in the dark for the duration of the test.
Test time periods were 1, 2, 4, 6 & 24 hours after application. The application was performed using an artist's air brush at low pressure to give a deposit of circa 2 g of spray diluted composition.
At the appropriate time period, the leaf disc was washed with methanol and the washings collected and made up to 25 mL with methanol. The appropriate control petri dish was also washed with methanol and the volume made up to 25 mL.
For each treatment a spray control was prepared by diluting 5 mL of spray liquid to 50 mL in a volumetric flask with methanol. The spray control is applied to the leaf and is used to determine the amount of vanillin applied to the leaf surface for each test.
The amount of vanillin washed from the leaf surface was subtracted from the amount washed from the petri dish control to determine how much of the vanillin has moved into the leaf sub-surface layer as a function of the formulation.

Loss (%) ([1]; 3 days): 6.18%
Vanillin ([1]; 3 days): 177.65 mg/L
Loss (%) ([1]; 5 days): 8.49%
% Vanillin lost by photo-decomposition (Photodecomposition study; 0 days): 0.0%
% Vanillin lost by photo-decomposition (Photodecomposition study; light box 5 of 24 hours, 1 day): +0.08%
% Vanillin lost by photo-decomposition (Photodecomposition study; light box 5 of 24 hours, 3 day): +1.50%
% Vanillin lost by photo-decomposition (Photodecomposition study; light box 5 of 24 hours, 5 day): +2.08%
Vanillin (mg/L) 2 ([2]; 0 days): 200.48 mg/L
Vanillin mg/dish ([2]; 0 days): 5.02 mg/dish
Loss (%) ([2]; 1 day): −1.19%
Vanillin mg/dish ([2]; 1 day): 4.96 mg/dish
Loss (%) ([2]; 2 days): −0.11%
Vanillin mg/dish ([2]; 2 days): 4.96 mg/dish
Loss (%) ([2]; 3 days): −1.17%
Vanillin mg/dish ([2]; 3 days): 4.90 mg/dish
Concentration (mg/dish) ([3]; 0 days): 5.87 mg/dish
Loss (%) ([3]; 0 days): 0.00%
Concentration (mg/dish) ([3]; 1 day): 5.85 mg/dish
Loss (%) ([3]; 1 day): 0.34%
Loss (%) ([3]; 3 days): 3.92%
Concentration (mg/dish) ([3]; 7 days): 5.53 mg/dish
Loss (%) ([3]; 7 days): 5.79%
Concentration (mg/dish) ([3]; 14 days): 5.22 mg/dish
% Vanillin penetrating through leaf cuticle surface (cabbage leaf discs; 1 hour after application): 0.4%
% Vanillin penetrating through leaf cuticle surface (cabbage leaf discs; 2 hour after application): 2.5%
% Vanillin penetrating through leaf cuticle surface (cabbage leaf discs; 4 hour after application): 1.7%
% Vanillin penetrating through leaf cuticle surface (cabbage leaf discs; 6 hour after application): 5.0%
% Vanillin penetrating through leaf cuticle surface (cabbage leaf discs; 24 hour after application): 8.5%
SMILES: COc1cc(C=O)ccc1O [0.1% Vanillin Technical in water, 4-Hydroxy-3-methoxybenzaldehyde]

Source: patent US20160157479A1, “ANTIFUNGAL COMPOSITION AND METHOD” (OMEX INTERNATIONAL LIMITED, priority 2013, published 2016)
